Source: PubChem BioAssay (NCI)
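Where inhibition never reached the appropriate level, the endpoint shown equals the highest concentration tested. Otherwise, values were interpolated linearly from a five-concentration, 48-hour dose response in 96-well plates. TGI: concentration producing complete growth inhibition.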

Key:
Experiment in all cases: growth of human tumour cells (NCI), 48 h
[1] = tested on: RXF-631 renal
[2] = tested on: DLD-1 colon
[3] = tested on: DMS 114 small cell lung
[4] = tested on: DMS 273 small cell lung
[5] = tested on: XF 498 CNS
[6] = tested on: SNB-78 CNS
[7] = tested on: M19-MEL melanoma

Compound | TGI [1] | TGI [2] | TGI [3] | TGI [4] | TGI [5] | TGI [6] | TGI [7]
COc1nc2[nH]ccc2c(=O)n1C | > 100 µM | > 100 µM | > 100 µM | > 100 µM | > 100 µM | > 100 µM | 
Clc1ncnc2c1ncn2CCCCCCCCCCCCn1cnc2c(Cl)ncnc21 |  | 20.4 µM | 3.55 µM | 14.1 µM | 21.6 µM | 11.2 µM | 5.7 µM
COC(=O)c1cccc(C(=O)OC)c1 |  | > 100 µM |  | > 100 µM | > 100 µM | > 100 µM | 
CCOC12SC(=Nc3ccc(C)cc3)NN1C(=S)N(C)N=C2C (stereo not given) |  | > 100 µM | > 100 µM | > 100 µM |  |  | > 100 µM
CC(=O)Nc1ccc(-c2nnc(SCC(=O)Nc3ccccc3C)o2)cc1 |  | > 100 µM | > 100 µM | > 100 µM |  | > 100 µM | > 100 µM
c1ccc(Nc2nnc(-c3nsc4ccccc34)o2)cc1 |  |  | > 100 µM | > 100 µM |  | > 100 µM | > 100 µM
CN1CCCCC(C(O)(c2ccccc2)c2ccccc2)C1=O (stereo not given) | > 100 µM | > 100 µM | > 100 µM | > 100 µM | > 100 µM | > 100 µM | > 100 µM
COC(=O)n1c(CBr)c(Br)c2ccccc21 |  | > 100 µM | > 100 µM | > 100 µM |  |  | > 100 µM
